According to ChEMBL document CHEMBL1201862, “PubChem BioAssay data set” (2004):
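Cultured in 96-well plates, cells were exposed to test compound for 48 hours across five concentrations. The concentration for 50% growth inhibition is given as GI50.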 Active and inactive are the calls of the source. Rule as the data show it: active = GI50 up to about 1.1 µM and inactive = higher.

How the values were obtained:
Test in all cases: growth of human tumour cells (NCI), 48 h
786-0 = test system: 786-0
BT-549 = test system: BT-549
CAKI-1 = test system: CAKI-1
EKVX = test system: EKVX
LOX IMVI = test system: LOX IMVI
MDA-MB-435 = test system: MDA-MB-435
MDA-N = test system: MDA-N
Malme-3M = test system: Malme-3M
NCI-H23 = test system: NCI-H23
NCI-H460 = test system: NCI-H460
OVCAR-8 = test system: OVCAR-8
PC-3 = test system: PC-3
SF-268 = test system: SF-268
SF-539 = test system: SF-539
SK-MEL-28 = test system: SK-MEL-28
SK-MEL-2 = test system: SK-MEL-2
SN12C = test system: SN12C
U-251 = test system: U-251
HCC 2998 = test system: HCC 2998

Measured: GI50

N#C/C(=C(\O)C(=O)O)c1ccc(-c2cccc3ccccc23)cc1
inactive: 786-0 > 100 µM | BT-549 > 100 µM | CAKI-1 > 100 µM | EKVX 59.4 µM | LOX IMVI > 100 µM | MDA-MB-435 > 100 µM | MDA-N > 100 µM | Malme-3M > 100 µM | NCI-H23 > 100 µM | NCI-H460 > 100 µM | OVCAR-8 > 100 µM | PC-3 > 100 µM | SF-268 > 100 µM | SF-539 > 100 µM | SK-MEL-28 > 100 µM | SK-MEL-2 > 100 µM | SN12C > 100 µM | U-251 > 100 µM

CC(SCc1ccccc1)C(=O)O (stereo unspecified)
inactive: 786-0 > 100 µM | BT-549 > 100 µM | CAKI-1 > 100 µM | EKVX > 100 µM | LOX IMVI > 100 µM | MDA-MB-435 > 100 µM | MDA-N > 100 µM | Malme-3M > 100 µM | NCI-H23 > 100 µM | NCI-H460 > 100 µM | OVCAR-8 > 100 µM | PC-3 > 100 µM | SF-268 > 100 µM | SF-539 > 100 µM | SK-MEL-28 > 100 µM | SK-MEL-2 > 100 µM | SN12C > 100 µM | U-251 > 100 µM

O=C1c2ccccc2C(=O)N1CCc1nc(-c2ccccc2)c[nH]1
inactive: 786-0 > 100 µM | BT-549 > 100 µM | CAKI-1 > 100 µM | EKVX > 100 µM | HCC 2998 > 100 µM | MDA-N > 100 µM | Malme-3M 24.8 µM | NCI-H23 > 100 µM | NCI-H460 > 100 µM | OVCAR-8 > 100 µM | PC-3 > 100 µM | SF-268 > 100 µM | SF-539 > 100 µM | SK-MEL-28 > 100 µM | SK-MEL-2 > 100 µM | SN12C > 100 µM | U-251 > 100 µM

O=C(c1ccccc1)N1CCC(CC2(c3cc4ccccc4[nH]3)OCCO2)CC1
inactive: 786-0 17.8 µM | BT-549 52.5 µM | CAKI-1 > 100 µM | EKVX 66.2 µM | LOX IMVI 17.2 µM | MDA-MB-435 20.6 µM | MDA-N 26.2 µM | NCI-H23 42.3 µM | NCI-H460 35.9 µM | OVCAR-8 58.6 µM | PC-3 40.5 µM | SF-268 51.8 µM | SF-539 37.7 µM | SK-MEL-28 19.4 µM | SK-MEL-2 30.7 µM | SN12C > 100 µM | U-251 34.8 µM

CNC(=O)N1N[C@H](c2ccccc2)[C@@H]1c1ccccc1.OB(O)O
inactive: 786-0 32.4 µM | BT-549 19.3 µM | CAKI-1 32.7 µM | EKVX 22.2 µM | HCC 2998 31 µM | LOX IMVI 18 µM | MDA-N 28.1 µM | Malme-3M 19.7 µM | NCI-H23 22.6 µM | NCI-H460 21.8 µM | OVCAR-8 14.5 µM | PC-3 28.1 µM | SF-539 17.9 µM | SK-MEL-28 18 µM | SK-MEL-2 15.3 µM | SN12C 25.5 µM | U-251 20 µM

CCSc1nnc2c(-c3ccccc3)n[nH]c2n1
inactive: 786-0 86.7 µM | BT-549 > 100 µM | CAKI-1 > 100 µM | EKVX 16 µM | LOX IMVI > 100 µM | MDA-MB-435 > 100 µM | MDA-N > 100 µM | NCI-H23 > 100 µM | NCI-H460 > 100 µM | OVCAR-8 66.8 µM | PC-3 > 100 µM | SF-268 49.1 µM | SF-539 90.8 µM | SK-MEL-28 > 100 µM | SK-MEL-2 > 100 µM | U-251 > 100 µM

C/C(=N\c1ccc(N(C)C)cc1)c1ccccc1
inactive: 786-0 19.8 µM | BT-549 18.9 µM | CAKI-1 19.8 µM | EKVX 72.3 µM | HCC 2998 44.6 µM | MDA-N 21.9 µM | Malme-3M 10.9 µM | NCI-H23 21.1 µM | NCI-H460 81.1 µM | OVCAR-8 35.4 µM | PC-3 23.4 µM | SF-268 > 10 µM | SF-539 56 µM | SK-MEL-28 33.7 µM | SK-MEL-2 11.2 µM | SN12C 17.4 µM | U-251 22.5 µM

O=c1c2cc(S(=O)(=O)O)ccc2nc(COc2ccc(Oc3ccc(Cl)cc3Cl)cc2)n1-c1ccc(Oc2ccc(Cl)cc2)cc1Cl
inactive: 786-0 20 µM | BT-549 17.1 µM | CAKI-1 30.8 µM | EKVX 17.6 µM | LOX IMVI 16.4 µM | MDA-MB-435 19.7 µM | MDA-N 23.7 µM | Malme-3M 28.1 µM | NCI-H23 21.7 µM | NCI-H460 16.6 µM | OVCAR-8 19 µM | PC-3 26.7 µM | SF-268 12.7 µM | SF-539 16.7 µM | SK-MEL-2 16.5 µM | SN12C 17.7 µM | U-251 16 µM

CC(=O)C(=[N+]=[N-])C(=O)N(C)CCC#N
inactive: 786-0 > 10 µM | BT-549 > 10 µM | EKVX > 10 µM | LOX IMVI > 10 µM | MDA-MB-435 > 10 µM | MDA-N > 10 µM | Malme-3M > 10 µM | NCI-H23 > 10 µM | NCI-H460 > 10 µM | OVCAR-8 > 10 µM | PC-3 > 10 µM | SF-268 > 10 µM | SF-539 > 10 µM | SK-MEL-28 > 10 µM | SK-MEL-2 > 10 µM | SN12C > 10 µM | U-251 > 10 µM

CCOC(=O)c1ccc(NCC#CCN2CCOCC2)cc1
inactive: 786-0 > 100 µM | BT-549 > 100 µM | EKVX 57.9 µM | LOX IMVI > 100 µM | MDA-MB-435 > 100 µM | MDA-N 29.4 µM | Malme-3M > 100 µM | NCI-H23 > 100 µM | PC-3 > 100 µM | SF-268 > 100 µM | SF-539 > 100 µM | SK-MEL-28 > 100 µM | SK-MEL-2 > 100 µM | SN12C > 100 µM | U-251 > 100 µM

CN(C)c1ccc(/N=N/c2ccc3[nH]cnc3c2)cc1
inactive: 786-0 18.2 µM | BT-549 32.5 µM | CAKI-1 42.2 µM | EKVX 33.5 µM | MDA-MB-435 19.5 µM | MDA-N 26.9 µM | Malme-3M 25.2 µM | NCI-H23 45.5 µM | NCI-H460 18.8 µM | OVCAR-8 38.4 µM | PC-3 33.1 µM | SF-268 20.6 µM | SF-539 17.8 µM | SK-MEL-28 11.5 µM | SK-MEL-2 58.7 µM | SN12C 22 µM | U-251 24.5 µM

CN1CCN(Cc2cc3c(nn2)-c2ccccc2C3=O)CC1
inactive: 786-0 40.6 µM | BT-549 53.6 µM | CAKI-1 > 100 µM | EKVX 46.3 µM | MDA-MB-435 23.7 µM | MDA-N 24.4 µM | Malme-3M 19.1 µM | NCI-H23 35 µM | NCI-H460 34.4 µM | OVCAR-8 95.7 µM | PC-3 37.8 µM | SF-268 > 100 µM | SF-539 72.9 µM | SK-MEL-2 > 100 µM | U-251 44.3 µM
